In the supplement of paper PMC10307832:

Legend:
Assay in all cases: relative viability (nuclei count vs DMSO), 5 days (fraction); higher = more cells survive
Dactolisib + Luminespib = compound: Cn1c(=O)n(-c2ccc(C(C)(C)C#N)cc2)c2c3cc(-c4cnc5ccccc5c4)ccc3ncc21 [Dactolisib] + CCNC(=O)c1noc(-c2cc(C(C)C)c(O)cc2O)c1-c1ccc(CN2CCOCC2)cc1 [Luminespib] (partner 0.01 µM)
Procedure, shortened: (§1)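 Lung cancer cell lines, seeded in 1536-well plates, were treated the following day by pin tool with a single drug or with five library-drug doses (not always all listed) in √10 steps on top of a fixed anchor-drug dose. Cells were fixed and nuclei stained in one step after 5 days, and nuclei were counted. Relative viability is the nuclei count for treated wells divided by that for vehicle wells, reported as medians of duplicate plates.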

AZ505 + Crizotinib = compound: C1CCC(CC1)N(CCNCCC2=C3C(=C(C=C2)O)NC(=O)CO3)C(=O)CCNCCC4=CC(=C(C=C4)Cl)Cl [AZ505] + C[C@@H](Oc1cc(-c2cnn(C3CCNCC3)c2)cnc1N)c1c(Cl)ccc(F)c1Cl [Crizotinib] (partner 1 µM)
Procedure, shortened: as §1

Dactolisib + Dasatinib = compound: Cn1c(=O)n(-c2ccc(C(C)(C)C#N)cc2)c2c3cc(-c4cnc5ccccc5c4)ccc3ncc21 [Dactolisib] + Cc1nc(Nc2ncc(C(=O)Nc3c(C)cccc3Cl)s2)cc(N2CCN(CCO)CC2)n1 [Dasatinib] (partner 0.075 µM)
Procedure, shortened: as §1

Dactolisib + Navitoclax = compound: Cn1c(=O)n(-c2ccc(C(C)(C)C#N)cc2)c2c3cc(-c4cnc5ccccc5c4)ccc3ncc21 [Dactolisib] + CC1(C)CCC(c2ccc(Cl)cc2)=C(CN2CCN(c3ccc(C(=O)NS(=O)(=O)c4ccc(N[C@H](CCN5CCOCC5)CSc5ccccc5)c(S(=O)(=O)C(F)(F)F)c4)cc3)CC2)C1 [Navitoclax] (partner 0.5 µM)
Procedure, shortened: as §1

Cell Line | relative viability (Dactolisib + Luminespib; first compound 0.002 µM) | relative viability (Dactolisib + Luminespib; first compound 0.006325 µM) | relative viability (Dactolisib + Luminespib; first compound 0.02 µM) | relative viability (Dactolisib + Luminespib; first compound 0.06325 µM) | relative viability (Dactolisib + Luminespib; first compound 0.2 µM) | relative viability (AZ505 + Crizotinib; first compound 0.08 µM) | relative viability (AZ505 + Crizotinib; first compound 0.253 µM) | relative viability (AZ505 + Crizotinib; first compound 0.8 µM) | relative viability (AZ505 + Crizotinib; first compound 2.53 µM) | relative viability (AZ505 + Crizotinib; first compound 8 µM) | relative viability (Dactolisib + Dasatinib; first compound 0.002 µM) | relative viability (Dactolisib + Dasatinib; first compound 0.006325 µM) | relative viability (Dactolisib + Dasatinib; first compound 0.02 µM) | relative viability (Dactolisib + Dasatinib; first compound 0.06325 µM) | relative viability (Dactolisib + Dasatinib; first compound 0.2 µM) | relative viability (Dactolisib + Navitoclax; first compound 0.002 µM) | relative viability (Dactolisib + Navitoclax; first compound 0.006325 µM) | relative viability (Dactolisib + Navitoclax; first compound 0.02 µM) | relative viability (Dactolisib + Navitoclax; first compound 0.06325 µM) | relative viability (Dactolisib + Navitoclax; first compound 0.2 µM)
NCI-H1993 | 0.752 | 0.738 | 0.637 | 0.442 | 0.488 | 0.928 | 0.85 | 0.766 | 1.03 | 0.798 | 0.553 | 0.413 | 0.498 | 0.505 | 0.52 | 0.827 | 0.846 | 0.625 | 0.537 | 0.626
NCI-H2009 | 1.14 | 1.05 | 0.89 | 1 | 0.362 | 0.989 | 1.03 | 0.976 | 1 | 0.976 | 0.3 | 0.283 | 0.291 | 0.194 | 0.154 | 1.27 | 1.12 | 1.1 | 0.692 | 0.501
NCI-H2023 | 0.643 | 0.562 | 0.217 | 0.0703 | 0.0888 | 0.641 | 0.719 | 0.683 | 0.795 | 0.67 | 0.487 | 0.454 | 0.376 | 0.0921 | 0.0851 | 1.11 | 0.95 | 0.816 | 0.204 | 0.201
NCI-H2085 | 0.387 | 0.388 | 0.374 | 0.208 | 0.239 | 1.02 | 0.848 | 0.679 | 0.924 | 0.877 | 0.179 | 0.249 | 0.229 | 0.169 | 0.209 | 1.17 | 1.01 | 0.89 | 0.584 | 0.367
NCI-H2087 | 0.281 | 0.164 | 0.146 | 0.128 | 0.121 | 0.683 | 0.743 | 0.998 | 0.752 | 0.838 | 0.782 | 0.771 | 0.86 | 0.359 | 0.272 | 0.986 | 0.907 | 1.02 | 0.481 | 0.429
NCI-H2126 | 0.803 | 0.868 | 0.809 | 0.334 | 0.296 | 0.98 | 1.05 | 0.982 | 1.03 | 1.08 | 0.599 | 0.589 | 0.504 | 0.385 | 0.279 | 0.896 | 0.77 | 0.762 | 0.564 | 0.399
NCI-H2170 | 0.512 | 0.805 | 0.722 | 0.435 | 0.195 | 1.07 | 1.24 | 1.12 | 1.26 | 1.22 | 0.644 | 0.538 | 0.652 | 0.486 | 0.289 | 0.58 | 0.512 | 0.473 | 0.217 | 0.198
NCI-H2228 | 0.15 | 0.143 | 0.112 | 0.176 | 0.128 | 0.373 | 0.518 | 0.369 | 0.467 | 0.342 | 0.629 | 0.441 | 0.339 | 0.162 | 0.141 | 0.875 | 0.699 | 0.551 | 0.241 | 0.215
